Data as given in PubChem BioAssay (NCI).
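Five concentrations, 48 hours, 96-well plates. GI50 is the concentration that inhibits growth by half. TGI denotes the concentration required for complete inhibition of growth.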

How the values were obtained:
Assay in all cases: DTP human tumour cell line panel, 48 h
SF-268 CNS = tested on: SF-268 CNS
OVCAR-8 ovarian = tested on: OVCAR-8 ovarian
T-47D breast = tested on: T-47D breast
SF-295 CNS = tested on: SF-295 CNS
CCRF-CEM leukemia = tested on: CCRF-CEM leukemia
SF-539 CNS = tested on: SF-539 CNS
HL-60(TB) leukemia = tested on: HL-60(TB) leukemia
NCI-H226 lung = tested on: NCI-H226 lung
SR leukemia = tested on: SR leukemia
OVCAR-3 ovarian = tested on: OVCAR-3 ovarian
SK-MEL-2 melanoma = tested on: SK-MEL-2 melanoma
SK-MEL-28 melanoma = tested on: SK-MEL-28 melanoma
HS 578T breast = tested on: HS 578T breast
HCC-2998 colon = tested on: HCC-2998 colon
EKVX NSCLC = tested on: EKVX NSCLC
OVCAR-5 ovarian = tested on: OVCAR-5 ovarian
NCI-H522 lung = tested on: NCI-H522 lung
U251 CNS = tested on: U251 CNS
HCT-15 colon = tested on: HCT-15 colon
BT-549 breast = tested on: BT-549 breast
MOLT-4 leukemia = tested on: MOLT-4 leukemia
OVCAR-4 ovarian = tested on: OVCAR-4 ovarian
DU-145 prostate = tested on: DU-145 prostate
PC-3 prostate = tested on: PC-3 prostate
CAKI-1 renal = tested on: CAKI-1 renal
HT29 colon = tested on: HT29 colon
NCI/ADR-RES ovarian = tested on: NCI/ADR-RES ovarian
LOX IMVI melanoma = tested on: LOX IMVI melanoma
COLO 205 colon = tested on: COLO 205 colon

Question: Which results are given for `COc1ccc(-c2cnc(NC(=O)CCCCCCNC(=O)C(O)(O)C(F)(F)F)s2)cc1`?
Answer: TGI (SF-268 CNS): 6260 nM; GI50 (OVCAR-8 ovarian): 967 nM; TGI (OVCAR-8 ovarian): 6850 nM; GI50 (T-47D breast): 864 nM; TGI (T-47D breast): 3780 nM; GI50 (SF-295 CNS): 742 nM; TGI (SF-295 CNS): 1820 nM; GI50 (CCRF-CEM leukemia): 1340 nM; TGI (CCRF-CEM leukemia): > 30800 nM; GI50 (SF-539 CNS): 1370 nM; TGI (SF-539 CNS): > 30800 nM; GI50 (HL-60(TB) leukemia): 1400 nM; TGI (HL-60(TB) leukemia): > 30800 nM; GI50 (NCI-H226 lung): 2200 nM; TGI (NCI-H226 lung): 12000 nM; GI50 (SR leukemia): 601 nM; TGI (SR leukemia): > 30800 nM; GI50 (OVCAR-3 ovarian): 635 nM; TGI (OVCAR-3 ovarian): 2110 nM; GI50 (SK-MEL-2 melanoma): 1010 nM; TGI (SK-MEL-2 melanoma): 4490 nM; GI50 (SK-MEL-28 melanoma): 1370 nM; TGI (SK-MEL-28 melanoma): > 30800 nM; GI50 (HS 578T breast): 952 nM; TGI (HS 578T breast): 10500 nM; GI50 (HCC-2998 colon): 1360 nM; TGI (HCC-2998 colon): 4530 nM; GI50 (EKVX NSCLC): 1970 nM; TGI (EKVX NSCLC): > 30800 nM; GI50 (OVCAR-5 ovarian): 907 nM; TGI (OVCAR-5 ovarian): 5500 nM; GI50 (NCI-H522 lung): 908 nM; TGI (NCI-H522 lung): 4560 nM; GI50 (U251 CNS): 862 nM; TGI (U251 CNS): 3780 nM; GI50 (HCT-15 colon): 1600 nM; TGI (HCT-15 colon): 8010 nM; GI50 (BT-549 breast): 1810 nM; TGI (BT-549 breast): 12900 nM; GI50 (MOLT-4 leukemia): 1100 nM; TGI (MOLT-4 leukemia): > 30800 nM; GI50 (OVCAR-4 ovarian): 2110 nM; TGI (OVCAR-4 ovarian): > 30800 nM; GI50 (DU-145 prostate): 1030 nM; TGI (DU-145 prostate): 7670 nM; GI50 (PC-3 prostate): 1210 nM; TGI (PC-3 prostate): > 30800 nM; GI50 (CAKI-1 renal): 975 nM; TGI (CAKI-1 renal): 7450 nM; GI50 (HT29 colon): 946 nM; TGI (HT29 colon): > 30800 nM; GI50 (NCI/ADR-RES ovarian): 1610 nM; TGI (NCI/ADR-RES ovarian): 8780 nM; GI50 (LOX IMVI melanoma): 678 nM; TGI (LOX IMVI melanoma): 1760 nM; GI50 (COLO 205 colon): 540 nM; TGI (COLO 205 colon): 1280 nM
